Laboratory results published in ChEMBL document CHEMBL5537135, “Novel antimicrobial peptides modified with fluorinated sulfono-γ-AA having high stability and targeting multidrug-resistant bacteria infections” (Eur J Med Chem, 2024).
≈ marks a conversion by molar mass, not a printed value. Calls of active or inactive are those of the source. The rule behind the calls is not given here. Numbered stars: 1 amine (or outer) side, 2 acyl side, 3 side chain; on linkers, the order of the positions; unused ones are H or OH. Square brackets hold non-standard residues; d marks the D form. Peptide text beside a SMILES is read from it. * marks the point of attachment. X4 = N[C@@H](Cc1ccccc1)CN(CC(=O)[*:2])[*:1]; X7 = O=S(=O)(c1cc(C(F)(F)F)cc(C(F)(F)F)c1)*; X2 = CC(C)C[C@H](N)CN(CC(=O)[*:2])[*:1]; X1 = O=S(=O)(c1ccc(C(F)(F)F)cc1)*

What was measured:
[1] = test system: Bacillus subtilis; assay: Antimicrobial activity against Bacillus subtilis ATCC 23857 assessed as inhibition of visible bacterial growth incubated for 18 hrs by broth-dilution method; assay type: functional
[2] = test system: Staphylococcus aureus; assay: Antimicrobial activity against Staphylococcus aureus ATCC 25923 assessed as reduction in bacterial growth in presence of Ca2+; assay type: functional
[3] = test system: Pseudomonas aeruginosa; assay: Antimicrobial activity against multidrug-resistant Pseudomonas aeruginosa 156 assessed as inhibition of visible bacterial growth incubated for 18 hrs by broth-dilution method; assay type: functional
[4] = test system: Salmonella typhimurium; assay: Antimicrobial activity against Salmonella typhimurium ATCC 14028 assessed as inhibition of visible bacterial growth incubated for 18 hrs by broth-dilution method; assay type: functional, Salmonella enterica subsp. enterica serovar Typhimurium; details: Salmonella enterica
[5] = test system: Staphylococcus aureus; assay: Antimicrobial activity against Staphylococcus aureus ATCC 25923 in presence of human serum; assay type: functional, organism-based
[6] = test system: Staphylococcus aureus; assay: Antimicrobial activity against methicillin-resistant Staphylococcus aureus ATCC 33591 in presence of mouse serum; assay type: functional, organism-based
[7] = test system: Erythrocyte; assay: Hemolytic activity against mouse Red blood cell incubated for 1 hr; assay type: toxicity, cell-based
[8] = test system: Staphylococcus aureus; assay: Antimicrobial activity against methicillin-resistant Staphylococcus aureus ATCC 33591 assessed as inhibition of visible bacterial growth incubated for 18 hrs by broth-dilution method; assay type: functional
[9] = test system: Pseudomonas aeruginosa; assay: Antimicrobial activity against Pseudomonas aeruginosa ATCC 27853 assessed as inhibition of visible bacterial growth incubated for 18 hrs by broth-dilution method; assay type: functional
[10] = test system: Acinetobacter baumannii; assay: Antimicrobial activity against Acinetobacter baumannii ATCC 19606 assessed as inhibition of visible bacterial growth incubated for 18 hrs by broth-dilution method; assay type: functional
[11] = test system: Staphylococcus aureus; assay: Antimicrobial activity against methicillin-resistant Staphylococcus aureus 4 assessed as inhibition of visible bacterial growth incubated for 18 hrs by broth-dilution method; assay type: functional
[12] = test system: Pseudomonas aeruginosa; assay: Antimicrobial activity against multidrug-resistant Pseudomonas aeruginosa 124 assessed as inhibition of visible bacterial growth incubated for 18 hrs by broth-dilution method; assay type: functional
[13] = test system: Staphylococcus aureus; assay: Antimicrobial activity against methicillin-resistant Staphylococcus aureus 8 assessed as inhibition of visible bacterial growth incubated for 18 hrs by broth-dilution method; assay type: functional
[14] = test system: Pseudomonas aeruginosa; assay: Antimicrobial activity against Pseudomonas aeruginosa ATCC 27853 in presence of mouse serum; assay type: functional, organism-based
[15] = test system: Pseudomonas aeruginosa; assay: Antimicrobial activity against multidrug-resistant Pseudomonas aeruginosa 516 assessed as inhibition of visible bacterial growth incubated for 18 hrs by broth-dilution method; assay type: functional
[16] = test system: Pseudomonas aeruginosa; assay: Antimicrobial activity against multidrug-resistant Pseudomonas aeruginosa 061 assessed as inhibition of visible bacterial growth incubated for 18 hrs by broth-dilution method; assay type: functional
[17] = test system: Staphylococcus aureus; assay: Antimicrobial activity against methicillin-resistant Staphylococcus aureus 5 assessed as inhibition of visible bacterial growth incubated for 18 hrs by broth-dilution method; assay type: functional
[18] = test system: Staphylococcus aureus; assay: Antimicrobial activity against methicillin-resistant Staphylococcus aureus 6 assessed as inhibition of visible bacterial growth incubated for 18 hrs by broth-dilution method; assay type: functional
[19] = test system: Staphylococcus aureus; assay: Antimicrobial activity against methicillin-resistant Staphylococcus aureus 10 assessed as inhibition of visible bacterial growth incubated for 18 hrs by broth-dilution method; assay type: functional
[20] = test system: Staphylococcus aureus; assay: Antimicrobial activity against methicillin-resistant Staphylococcus aureus 3 assessed as inhibition of visible bacterial growth incubated for 18 hrs by broth-dilution method; assay type: functional
[21] = test system: Pseudomonas aeruginosa; assay: Antimicrobial activity against multidrug-resistant Pseudomonas aeruginosa 125 assessed as inhibition of visible bacterial growth incubated for 18 hrs by broth-dilution method; assay type: functional
[22] = test system: Escherichia coli; assay: Antimicrobial activity against Escherichia coli ATCC 25922 assessed as inhibition of visible bacterial growth incubated for 18 hrs by broth-dilution method; assay type: functional
[23] = test system: Pseudomonas aeruginosa; assay: Antimicrobial activity against multidrug-resistant Pseudomonas aeruginosa 157 assessed as inhibition of visible bacterial growth incubated for 18 hrs by broth-dilution method; assay type: functional
[24] = test system: Pseudomonas aeruginosa; assay: Antimicrobial activity against multidrug-resistant Pseudomonas aeruginosa 073 assessed as inhibition of visible bacterial growth incubated for 18 hrs by broth-dilution method; assay type: functional
[25] = test system: Staphylococcus aureus; assay: Antimicrobial activity against methicillin-resistant Staphylococcus aureus 9 assessed as inhibition of visible bacterial growth incubated for 18 hrs by broth-dilution method; assay type: functional
[26] = test system: Pseudomonas aeruginosa; assay: Antimicrobial activity against multidrug-resistant Pseudomonas aeruginosa 085 assessed as inhibition of visible bacterial growth incubated for 18 hrs by broth-dilution method; assay type: functional
[27] = test system: Staphylococcus aureus; assay: Antimicrobial activity against Staphylococcus aureus ATCC 25923 assessed as fold change in MIC in presence of salt solution; assay type: functional
[28] = Stability in human serum assessed as half life measured for 5 hrs by RP-HPLC analysis; assay type: ADME, cell-free
[29] = test system: Staphylococcus aureus; assay: Antimicrobial activity against Staphylococcus aureus ATCC 25923 assessed as inhibition of visible bacterial growth incubated for 18 hrs by broth-dilution method; assay type: functional
[30] = test system: Pseudomonas aeruginosa; assay: Antimicrobial activity against multidrug-resistant Pseudomonas aeruginosa 119 assessed as inhibition of visible bacterial growth incubated for 18 hrs by broth-dilution method; assay type: functional
[31] = test system: Staphylococcus aureus; assay: Antimicrobial activity against methicillin-resistant Staphylococcus aureus 1 assessed as inhibition of visible bacterial growth incubated for 18 hrs by broth-dilution method; assay type: functional
[32] = test system: Staphylococcus aureus; assay: Antimicrobial activity against methicillin-resistant Staphylococcus aureus ATCC 33591 in presence of human serum; assay type: functional, organism-based
[33] = test system: Pseudomonas aeruginosa; assay: Antimicrobial activity against Pseudomonas aeruginosa ATCC 27853 in presence of human serum; assay type: functional, organism-based
[34] = test system: Pseudomonas aeruginosa; assay: Antimicrobial activity against multidrug-resistant Pseudomonas aeruginosa 050 assessed as inhibition of visible bacterial growth incubated for 18 hrs by broth-dilution method; assay type: functional
[35] = test system: Staphylococcus epidermidis; assay: Antimicrobial activity against Staphylococcus epidermidis ATCC 12228 assessed as inhibition of visible bacterial growth incubated for 18 hrs by broth-dilution method; assay type: functional
[36] = test system: Staphylococcus aureus; assay: Antimicrobial activity against methicillin-resistant Staphylococcus aureus 2 assessed as inhibition of visible bacterial growth incubated for 18 hrs by broth-dilution method; assay type: functional
[37] = test system: Staphylococcus aureus; assay: Antimicrobial activity against methicillin-resistant Staphylococcus aureus 7 assessed as inhibition of visible bacterial growth incubated for 18 hrs by broth-dilution method; assay type: functional
[38] = test system: Staphylococcus aureus; assay: Antimicrobial activity against Staphylococcus aureus ATCC 25923 in presence of mouse serum; assay type: functional, organism-based
[39] = test system: Pseudomonas aeruginosa; assay: Antibacterial activity against antibiotics-resistant Pseudomonas aeruginosa […] assessed as reduction in microbial growth; assay type: functional
[40] = test system: Staphylococcus aureus; assay: Antibacterial activity against antibiotics-resistant Staphylococcus aureus ATCC 33591 assessed as reduction in microbial growth; assay type: functional

Row | SMILES | MIC [1] | MIC [2] | MIC [3] | MIC [4] | MHC [7] | MIC [8] | MIC [9] | MIC [10] | MIC [12] | MIC [16] | MIC [21] | MIC [22] | MIC [23] | MIC [26] | fold change (FC) [27] | half-life [28] | MIC [29] | MIC [30] | MIC [34] | MIC [35] | also measured
1 | CC(C)C[C@H](NC(=O)[C@H](CC(C)C)NC(=O)[C@H](CCCCN)NC(=O)[C@H](CCCCN)NC(=O)[C@H](CC(C)C)NC(=O)[C@H](C)NC(=O)[C@H](CCCCN)NC(=O)CN(C[C@@H](N)Cc1ccccc1)S(=O)(=O)c1ccc(C(F)(F)F)cc1)C(N)=O (X1-[X4]KALKKLL-NH2) | 4 µg/mL (≈ 3.3 µM) | 32 µg/mL | 16 µg/mL (≈ 13.2 µM) | 16 µg/mL (≈ 13.2 µM) | 256 µg/mL | 8 µg/mL (≈ 6.61 µM) | 8 µg/mL (≈ 6.61 µM) | 16 µg/mL (≈ 13.2 µM) | 4 µg/mL (≈ 3.3 µM) | 4 µg/mL (≈ 3.3 µM) | 8 µg/mL (≈ 6.61 µM) | 16 µg/mL (≈ 13.2 µM) | 4 µg/mL (≈ 3.3 µM) | 8 µg/mL (≈ 6.61 µM) | 0.25 | 3.93 h | 8 µg/mL (≈ 6.61 µM) | 4 µg/mL (≈ 3.3 µM) | 8 µg/mL (≈ 6.61 µM) | 8 µg/mL (≈ 6.61 µM) | Activity [5]: Active; Activity [6]: inactive; MIC [11]: 8 µg/mL (≈ 6.61 µM); MIC [13]: 8 µg/mL (≈ 6.61 µM); Activity [14]: inactive; MIC [15]: 8 µg/mL (≈ 6.61 µM); MIC [17]: 8 µg/mL (≈ 6.61 µM); MIC [18]: 8 µg/mL (≈ 6.61 µM); MIC [19]: 8 µg/mL (≈ 6.61 µM); MIC [20]: 8 µg/mL (≈ 6.61 µM); MIC [24]: 8 µg/mL (≈ 6.61 µM); MIC [25]: 8 µg/mL (≈ 6.61 µM); MIC [31]: 4 µg/mL (≈ 3.3 µM); Activity [32]: Active; Activity [33]: Active; MIC [36]: 8 µg/mL (≈ 6.61 µM); MIC [37]: 8 µg/mL (≈ 6.61 µM); Activity [38]: inactive
2 | CC(C)C[C@H](N)CN(CC(=O)N[C@@H](CCCCN)C(=O)N[C@@H](CC(C)C)C(=O)N[C@@H](CC(C)C)C(=O)N[C@@H](CCCCN)C(=O)N[C@@H](CCCCN)C(=O)N[C@@H](CC(C)C)C(=O)N[C@@H](CC(C)C)C(N)=O)S(=O)(=O)c1cc(C(F)(F)F)cc(C(F)(F)F)c1 (X7-[X2]KLLKKLL-NH2) | 16 µg/mL (≈ 12.4 µM) | 32 µg/mL | – | 16 µg/mL (≈ 12.4 µM) | 128 µg/mL | 4 µg/mL (≈ 3.11 µM) | 4 µg/mL (≈ 3.11 µM) | 16 µg/mL (≈ 12.4 µM) | – | – | – | 8 µg/mL (≈ 6.22 µM) | – | – | 0.25 | 3.33 h | 8 µg/mL (≈ 6.22 µM) | – | – | 16 µg/mL (≈ 12.4 µM) | –
3 | C[C@H]1[C@H](NC(=O)/C(=N\OC(C)(C)C(=O)O)c2csc(N)n2)C(=O)N1S(=O)(=O)O [AZTREONAM] | – | – | 256 µg/mL (≈ 588 µM) | – | – | – | – | – | 4 µg/mL (≈ 9.19 µM) | 256 µg/mL (≈ 588 µM) | 8 µg/mL (≈ 18.4 µM) | – | 8 µg/mL (≈ 18.4 µM) | 8 µg/mL (≈ 18.4 µM) | – | – | – | 8 µg/mL (≈ 18.4 µM) | 8 µg/mL (≈ 18.4 µM) | – | MIC [39]: 32 µg/mL; MIC [40]: 32 µg/mL
